Source: US6864378B2, “Integrated continuous process for anhydro sugar alcohol manufacture” (E. I. du Pont de Nemours and Company, priority 2002, dated 2005)

Assay type: physicochemical
From the text: The reaction product obtained by processes such as the above, contains about 70 to 80% by weight isosorbide and 20 to 30% undesired reaction byproducts. The reaction product thus needs to be subjected to one or more separation steps, such as evaporation, distillation or chromatographic separation, to isolate the isosorbide. Chromatographic separation is disclosed in U.S. Patent Application No. 60/246038 (filed 6, Nov. 2000). Separation by vaporization or distillation is difficult because of the low vapor pressure of isosorbide. […] Evaporation or distillation at temperatures not much higher than about 140° C. is desirable to-minimize product degradation and obtain good purity isosorbide, but the recovery is poor. At higher temperatures, e.g., 170° C., more isosorbide is recovered, but it is of poorer quality.
The sorbitans, dimers, and polymer byproducts are all considerably higher boiling than isosorbide. For example, the vapor pressure of the sorbitans is only about 0.04 mm Hg at 140° C., about one-fiftieth that of isosorbide. The dimers are even less volatile, and the polymers are practically nonvolatile. Therefore, the water vapor volatilizes most of the dianhydro sugar alcohols but not such high boiling byproducts. […]

Structure (SMILES): O[C@@H]1CO[C@H]2[C@@H]1OC[C@@H]2O [isosorbide, 1,4:3,6-dianhydrosorbitol]
- vapor pressure: 1.75 mm Hg
